Consider one compound from patent US12404345B2, “Humanized antibodies against iRHOM2” (SCIRHOM GMBH, priority 2021, dated 2025).

Molecules are shown by their SMILES.

The subject of the experiment is PMA-induced release of endogenous TGFα from human PC3 prostate cancer cells. Kind of experiment: ELISA-based TGFα release assay, PMA-induced, PC3 cells. Type of experiment: cell-based. Conditions: PC-3, Batimastat 10 μM, PMA 25 ng/ml, 2 hours. As to the method: In the following study, ELISA-based TGFα release assays were performed to analyze the inhibitory effects of the antibodies of the invention on PMA-induced release of endogenous TGFα from human PC3 prostate cancer cells.
In brief, on day 1, Nunc black MaxiSorp® 96-well plates (Thermo Fisher Scientific, USA) were coated overnight with 100 μl per well of goat anti-human TGFα capture antibody (provided as part of the DuoSet ELISA kit) at 0.4 μg/ml TBS at 4° C. 80,000 PC3 (European Collection of Authenticated Cell Cultures, UK) cells in 100 μl of normal growth medium were seeded in each well of F-bottom 96-well cell culture plates (Corning, USA) and incubated at 37° C., 5% CO2 overnight. On day 2, the capture antibody solution was removed and MaxiSorp® plates were blocked with 300 μl per well of TBS, 1% BSA at room temperature for 1-2 hours. […] Using an infinite M1000 (Tecan Group, Switzerland) microplate reader, the fluorescence of each well was collected at an excitation wavelength of 435 nm and an emission wavelength of 555 nm.

`CNC(=O)[C@H](Cc1ccccc1)NC(=O)[C@H](CC(C)C)[C@H](CSc1cccs1)C(=O)NO` [Batimastat] showed an inhibition at 10 µM of 90.7%.
